Measurements reported in PubChem BioAssay AID520 (NMMLSC, 2006).
Activity calls are given as the source filed them. No rule for the calls is given here.

Molecular target: N-formyl peptide receptor 2 (Homo sapiens) (UniProt P25090)
Test: FPRL1 binding inhibitor potency, dose response, cell-based, FPR counter-screen, fluorescent ligand (AID 520)
Settings: FPRL1-expressing cells, fluorescent ligand binding inhibition; for Ki: measured here: FPRL1 binding Ki

N-formyl peptide receptor 2 (Homo sapiens), sequence (P25090 whole entry, looked up): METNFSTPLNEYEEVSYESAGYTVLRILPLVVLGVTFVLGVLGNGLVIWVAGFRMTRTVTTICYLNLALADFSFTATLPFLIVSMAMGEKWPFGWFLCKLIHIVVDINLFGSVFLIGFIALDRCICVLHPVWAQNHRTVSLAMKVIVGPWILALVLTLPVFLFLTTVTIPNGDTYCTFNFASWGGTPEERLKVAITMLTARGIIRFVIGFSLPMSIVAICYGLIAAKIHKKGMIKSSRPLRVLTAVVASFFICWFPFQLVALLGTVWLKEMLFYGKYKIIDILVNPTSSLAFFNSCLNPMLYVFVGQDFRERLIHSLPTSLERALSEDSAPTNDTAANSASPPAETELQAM

SMILES | Ki | IC50
O=C(c1ccc(Cl)cc1)N(Cc1cccs1)C1CCS(=O)(=O)C1 (centres undefined) | > 40.3 µM | –
COC(=O)c1[nH]c(C)c(/C(O)=C2\C(=O)C(=O)N(CCN3CCOCC3)C2c2cccs2)c1C (centres undefined) | > 40.3 µM | > 66.7 µM (inactive)
Cc1ccccc1Nc1cc2ccccc2c(=O)[nH]1 | > 40.3 µM | –
Cc1ccc(/C(O)=C2/C(=O)C(=O)N(CCN3CCOCC3)C2c2cccnc2)cc1 (centres undefined) | > 40.3 µM | > 66.7 µM (inactive)
Cc1csc(NC(=O)CCn2c(=O)oc3ccccc32)n1 | > 40.3 µM | –
C/C(=C1/SC(N2CCCC2)=NC1=O)c1ccc(Br)cc1 | > 40.3 µM | > 66.7 µM (inactive)
CCOC(=O)N1CCN(c2cc(NCCC(=O)O)c3c4c(onc24)-c2ccccc2C3=O)CC1 | 30.1 µM | –
CCCCNC(=O)c1sc(=S)n2c1[nH]c(=O)c1ccccc12 | > 40.3 µM | –
COc1ccc(C2/C(=C(/O)c3ccccc3)C(=O)C(=O)N2CC(C)O)c(OC)c1 (centres undefined) | > 40.3 µM | > 66.7 µM (inactive)
COc1cc(C2/C(=C(\O)c3ccc4c(c3)CC(C)O4)C(=O)C(=O)N2CCCn2ccnc2)ccc1O (centres undefined) | > 40.3 µM | > 66.7 µM (inactive)
CC1Cc2cc(/C(O)=C3\C(=O)C(=O)N(CCN4CCOCC4)C3c3ccccc3F)ccc2O1 (centres undefined) | > 40.3 µM | > 66.7 µM (inactive)
CCCOc1ccc(C2C(C(=O)c3ccco3)=C(O)C(=O)N2CCCn2ccnc2)cc1 (centres undefined) | > 40.3 µM | > 66.7 µM (inactive)
COCCCN1C(=O)C(=O)/C(=C(/O)c2ccc(OC)cc2C)C1c1cccnc1 (centres undefined) | > 40.3 µM | > 66.7 µM (inactive)
COc1cccc2c1C(=O)c1c(O)c3c(c(O)c1C2=O)C[C@@](O)(C(C)=O)C[C@@H]3O[C@H]1C[C@H](N)[C@H](O)[C@H](C)O1 | 15.2 µM | –
CCOc1cccc(/C(O)=C2/C(=O)C(=O)N(Cc3ccco3)C2c2ccncc2)c1 (centres undefined) | > 40.3 µM | > 66.7 µM (inactive)
CCCCn1c(NC(=O)CC)c(C#N)c2nc3ccccc3nc21 | > 40.3 µM | –
O=C(C1=C(O)C(=O)N(CCc2ccccc2)C1c1cccnc1)c1ccco1 (centres undefined) | > 40.3 µM | > 66.7 µM (inactive)
Cc1cc(N2C(=O)C(O)=C(C(=O)c3ccco3)C2c2cccnc2)no1 (centres undefined) | > 40.3 µM | > 66.7 µM (inactive)
COc1ccc(NC(=O)C2C3CCC(C3)C2C(=O)O)cc1OC (centres undefined) | > 40.3 µM | –
C[N+]1(C)[C@@H]2CC(OC(=O)[C@H](CO)c3ccccc3)C[C@H]1[C@@H]1O[C@@H]12 (some centres undefined) | > 40.3 µM | –
Cc1[nH]n2c(=O)c3c(nc2c1-c1cccc2ccccc12)CCC3 | > 40.3 µM | –
COc1cc(C2C(C(=O)c3ccco3)=C(O)C(=O)N2c2cc(C)on2)cc(Br)c1O (centres undefined) | > 40.3 µM | > 66.7 µM (inactive)
COCCCN1C(=O)C(=O)/C(=C(/O)c2ccccc2)C1c1ccc2c(c1)OCO2 (centres undefined) | > 40.3 µM | > 66.7 µM (inactive)

SMILES | Ki | IC50
COc1ccc(OC)c(C2C(C(=O)c3cccs3)=C(O)C(=O)N2c2cc(C)on2)c1 (centres undefined) | > 40.3 µM | > 66.7 µM (inactive)
CC(=O)OCCNc1cc(N2CCN(C)CC2)c2noc3c2c1C(=O)c1ccccc1-3 | 4.2 µM | –
Cc1ccc(/C(O)=C2\C(=O)C(=O)N(CC(C)O)C2c2ccc(N(C)C)cc2)cc1 (centres undefined) | > 40.3 µM | > 66.7 µM (inactive)
CCOc1cc(C(=O)NCc2nnc(SCC(=O)OC)n2C)cc(OCC)c1OCC | 11.2 µM | –
O=C(C1=C(O)C(=O)N(CCOCCO)C1c1cccs1)c1cccs1 (centres undefined) | > 40.3 µM | > 66.7 µM (inactive)
Cc1[nH]n2c(=O)c(C#N)c(-c3ccccc3)nc2c1-c1ccccc1 | > 40.3 µM | –
Cc1c(C)c2cc(Cl)c(O)c(CN3CCCCC3)c2oc1=O | > 40.3 µM | –
CCOc1cc(C2C(C(=O)c3ccc(C)o3)=C(O)C(=O)N2CCc2ccccc2)ccc1O (centres undefined) | > 40.3 µM | > 66.7 µM (inactive)
COc1ccc(CCN2C(=O)C(O)=C(C(=O)c3ccco3)C2c2cccs2)cc1OC (centres undefined) | > 40.3 µM | > 66.7 µM (inactive)
CCc1c(C)nc2c(C#N)c(C)[nH]n2c1=O | > 40.3 µM | –
Cc1cc(NC(=O)CSc2nnc(Cn3c(=O)sc4ccccc43)n2-c2ccccc2C)no1 | > 40.3 µM | –
Cc1ccc(C)c(/C(O)=C2\C(=O)C(=O)N(CCCn3ccnc3)C2c2ccncc2)c1 (centres undefined) | > 40.3 µM | > 66.7 µM (inactive)
Cc1nc2c(C#N)c(C)[nH]n2c(=O)c1Cc1ccccc1 | > 40.3 µM | –
COc1ccccc1Oc1c(C)oc2cc(OC(=O)c3ccco3)ccc2c1=O | > 40.3 µM | –
O=C1C(CCS(=O)c2ccccc2)C(=O)N(c2ccccc2)N1c1ccccc1 (centres undefined) | > 40.3 µM | > 66.7 µM (inactive)
Cc1ccc(C2/C(=C(/O)c3ccc(Br)cc3)C(=O)C(=O)N2Cc2ccco2)o1 (centres undefined) | > 40.3 µM | > 66.7 µM (inactive)
CSCCC1C(C#N)=C(N)Oc2n[nH]c(-c3cccs3)c21 (centres undefined) | > 40.3 µM | > 66.7 µM (inactive)
COc1ccc(CN(C(=O)c2ccccc2OC)C2CCS(=O)(=O)C2)cc1 (centres undefined) | > 40.3 µM | –
COc1ccc(OC)c(C2/C(=C(/O)c3ccccc3)C(=O)C(=O)N2Cc2ccco2)c1 (centres undefined) | > 40.3 µM | > 66.7 µM (inactive)
Cc1ccc(C(=O)C2=C(O)C(=O)N(CCCn3ccnc3)C2c2ccc(OC(C)C)cc2)o1 (centres undefined) | > 40.3 µM | > 66.7 µM (inactive)
COC(=O)C1=[N+]([O-])OC(C(=O)OC)C1c1c[nH]c2ccccc12 (centres undefined) | > 40.3 µM | –
CCOC(=O)c1c(-c2ccc(-c3ccccc3)cc2)csc1NC(=O)C1C2CCC(O2)C1C(=O)O (centres undefined) | > 40.3 µM | –
COc1cc(-n2nc(C)c3c2OC(N)=C(C#N)C3c2ccccc2)c(Cl)c(Br)c1O (centres undefined) | > 40.3 µM | > 66.7 µM (inactive)

SMILES | Ki | IC50
O=C(C1=C(O)C(=O)N(CCN2CCOCC2)C1c1ccccc1)c1cccs1 (centres undefined) | > 40.3 µM | > 66.7 µM (inactive)
O=C1N=c2ccccc2=C1c1sc(=S)n(CC2CCCO2)c1O (centres undefined) | > 40.3 µM | > 66.7 µM (inactive)
COc1ccccc1NC(=O)CSc1nnc(Cn2nnc(-c3ccccc3)n2)n1-c1ccccc1 | > 40.3 µM | –
CCCNC(=S)Nc1ccc(Nc2ccccc2)cc1 | > 40.3 µM | –
CCC(C)(C(=O)NC1CCCC1)N(CC1CCCO1)C(=O)c1ccc2c(c1)OCO2 (centres undefined) | > 40.3 µM | –
COc1ccc(/C(O)=C2/C(=O)C(=O)N(c3nc(C)c(C)s3)C2c2ccco2)cc1 (centres undefined) | > 40.3 µM | > 66.7 µM (inactive)
CCC(=O)Nc1c(C#N)c2nc3ccccc3nc2n1-c1ccccc1C | > 40.3 µM | –
CCC(Sc1nc2c(c(=O)[nH]1)CCC2)C(=O)Nc1cccc(OC)c1 (centres undefined) | > 40.3 µM | –
Cc1ccc(NC(=O)C2C(=O)N(CCO)C3(C)CC2c2ccccc2O3)cc1 (centres undefined) | > 40.3 µM | –
Cc1nnc(SCc2cnc(-c3ccccc3)o2)[nH]c1=O | > 40.3 µM | –
COc1ccc(OC)c(C2C(C(=O)c3ccco3)=C(O)C(=O)N2CCCN2CCOCC2)c1 (centres undefined) | > 40.3 µM | > 66.7 µM (inactive)
COc1ccc(-c2nc(N3CCCC3)[nH]c(=O)c2C#N)cc1 | > 40.3 µM | –
CCOC(=O)Cc1cc(=O)n2[nH]c(C)c(-c3ccccc3)c2n1 | > 40.3 µM | –
COC(=O)[C@H](C(C)C)n1c(C)c(C(C)=O)c(C(C)=O)c1C | > 40.3 µM | –
CN1CCN(CCCNC(=O)Nc2cccc3ccccc23)CC1 | > 40.3 µM | –
O=S(=O)(c1cnc[nH]1)N1CCc2ccccc21 | > 40.3 µM | –
COc1cccc(C2C(C(=O)c3cc4ccccc4o3)=C(O)C(=O)N2c2cc(C)on2)c1OC (centres undefined) | > 40.3 µM | > 66.7 µM (inactive)
CCCCC1C(=O)N(c2ccccc2)N(c2ccccc2)C1=O | > 40.3 µM | > 66.7 µM (inactive)
CCCOc1ccc(C2C(C(=O)c3ccc(C)o3)=C(O)C(=O)N2Cc2cccnc2)cc1 (centres undefined) | > 40.3 µM | > 66.7 µM (inactive)
O=C(NCc1cccnc1)C1c2ccccc2C(=O)N1C1CCCCCC1 (centres undefined) | > 40.3 µM | –
CCOc1ccc(/C(O)=C2/C(=O)C(=O)N(c3nc(C)c(C)s3)C2c2ccco2)cc1 (centres undefined) | > 40.3 µM | > 66.7 µM (inactive)
Cc1[nH]n2c(=O)cc(-c3ccc([N+](=O)[O-])cc3)nc2c1-c1ccccc1 | 19.1 µM | –
CCOC(=O)CCn1nc(-c2ccc(Cl)cc2)cc1N | > 40.3 µM | –

SMILES | Ki | IC50
CCCC(=O)Nc1cc(-c2cn3cccnc3n2)ccc1OC | 13.8 µM | –
COc1ccc(C2C(C(=O)c3ccco3)=C(O)C(=O)N2Cc2cccnc2)cc1OC (centres undefined) | > 40.3 µM | > 66.7 µM (inactive)
CC1(C)S[C@@H]2[C@H](NC(=O)Cc3ccccc3)C(=O)N2[C@H]1C(=O)O | > 40.3 µM | –
Cc1cccc(C2CC(c3ccc(Cl)cc3)Nc3nc(N)nn32)c1 (centres undefined) | > 40.3 µM | –
CSc1ccccc1NS(=O)(=O)c1ccccc1 | > 40.3 µM | –
CCC(CCC(=O)Nc1cccc(C(=O)O)c1)C(=O)O (centres undefined) | > 40.3 µM | –
CCCc1cc(=O)n2[nH]c(C)c(-c3ccccc3)c2n1 | > 40.3 µM | –
O=C(NC1CCCC1)C1CC1c1ccccc1 (centres undefined) | > 40.3 µM | –
Cc1nc2c(C)cccn2c1/C(O)=C1\C(=O)C(=O)N(CCN2CCOCC2)C1c1cccs1 (centres undefined) | > 40.3 µM | > 66.7 µM (inactive)
COc1ccc(-c2cn3cccnc3n2)cc1NC(=O)C1CCCC1 | > 40.3 µM | –
CCc1nn2c(=O)cc(CSc3nc4sc5c(c4c(=O)n3C)CCCC5)nc2s1 | > 40.3 µM | –
CCOC(=O)N1CCC(NC(=O)c2cc(C(=O)Nc3ccc(OC)c(OC)c3)ccc2CO)CC1 | > 40.3 µM | –
COc1ccc(-c2nc(-c3ccc(NC(=O)c4ccc(Br)o4)cc3)no2)cc1OC | > 40.3 µM | –
N#Cc1c(C(F)(F)F)cc(-c2ccccc2)nc1SCc1nc(N)nc(N2CCOCC2)n1 | > 40.3 µM | –
Cc1cc(SCC(N)=O)nc(SCC(=O)c2ccccc2)n1 | > 40.3 µM | –
O=C(NCCCN1CCN(c2ccc(F)cc2)CC1)c1cccc(N2CCCC2=O)c1 | > 40.3 µM | –
COCCCN1C(=O)C(O)=C(C(=O)c2ccco2)C1c1ccc(Br)cc1 (centres undefined) | > 40.3 µM | > 66.7 µM (inactive)
Cc1ccc(C(=O)C2=C(O)C(=O)N(Cc3ccccc3)C2c2cccnc2)o1 (centres undefined) | > 40.3 µM | > 66.7 µM (inactive)
C=CCOc1ccc(C2C(C(=O)c3cccs3)=C(O)C(=O)N2c2nnc(C)s2)cc1 (centres undefined) | > 40.3 µM | > 66.7 µM (inactive)
Cc1ccc(C2C3=C(CC(C)(C)CC3=O)Nc3[nH]c(=S)[nH]c(=O)c32)cc1 (centres undefined) | > 40.3 µM | > 66.7 µM (inactive)
Cc1ccc(Nc2nc(C3CC3)cs2)cc1 | > 40.3 µM | –
